This assay concerns the target T1, VHL (VBC complex: pVHL54-213, eloB1-104, eloC17-112) (Homo sapiens, UniProt P40337).
T1 construct: equimolar complex of pVHL54-213, eloB1-104 and; made in house; host or cells: E. coli
In words: Surface plasmon resonance (SPR) steady-state binding to immobilised biotinylated AviVBC. Here is the method: The KD of each compound to VHL was determined by surface plasmon resonance (SPR) experiments.
3. Protein expression, purification and biotinylation
The VHL E3 ligase is a multi-protein complex composed of five proteins: VHL protein (pVHL), elongin B (eloB), elongin C (eloC), Cullin-2 (Cul2) and Ring-box protein 1 (Rbx1).[3] Since the compounds developed in this work bind solely to the VHL protein, the VBC complex (equimolar complex of pVHL54-213, eloB1-104 and eloC17-112) was used in all experiments, as it can be readily expressed in E. coli with high yields,[4] while the full E3 ligase would require baculovirus-insect cells expression system.[5] The expression and purification of VBC was performed as described previously by our group[2] and employed directly in all NMR experiments.
For the surface plasmon resonance (SPR) experiments, a VBC complex containing an AviTagTM in the N-terminus of eloB (AviVBC) was purified using the same procedure described for VBC. The modified eloB/eloC expression plasmid was previously developed in-house by Dr. Michael Roy and kindly shared. The AviVBC complex was site-specifically biotinylated in the AviTag using the GST-BirA method previously described by […]
4. Surface plasmon resonance experiments
The SPR experiments were performed with a Biacore T200 instrument (GE Healthcare). All measurements were performed at 20 °C with buffer containing 10 mM HEPES, pH 7.5, 150 mM NaCl, 1 mM TCEP, 0.005% (v/v) Tween® 20 and 2% (v/v) dimethyl sulfoxide (DMSO). Biotinylated AviVBC (~0.5 μM) was immobilised at 22 °C onto a Series S sensor chip SA (GE Heathcare) to levels of approximately 3500-4000 response units […]
Solutions of each spy molecule were prepared in buffer at concentrations based on previous structure-activity relationship studies of VHL ligands (K D expected in the nanomolar range for structures like spy molecules 16 and 22, or in the milimolar range for spy molecules similar to 1 and 9). From this first screen, the binding affinities were roughly estimated using the Biacore T200 evaluation software (GE Healthcare), then measurements were repeated using concentrations above and below the KD obtained in the first round to generate better curves for fitting the data accurately. Contact and dissociation times varied across the different compounds tested, but in […]
dissociated from the surface in less than sixty seconds.
Data analysis was performed using the steady state responses of the double-referenced sensorgrams (raw data subtracted from blank and reference surface injections) obtained for each concentration tested. These responses were plotted against the respective concentrations and the data fitted to a 1: 1 binding model u sing the Biacore T200 evaluation software and the following equation: […]
Where Req is the steady-state response at a given concentration C. Deviations in Req were corrected by adding an ‘offset’ term to the equation. KD is the dissociation constant to be determined and RMAX is the maximum response expected for a given compound according to the equation below:
Where n is the stoichiometry of the interaction ( in this case, n = 1) and RProtein is the immobilization level of protein. MWCompound and MWProtein are the molecular weights of compound and protein, respectively. Sensorgrams and fitting parameters for all spy molecules can be found in section 7.

The mark [1] stands for this setting: SPR steady-state fit, supplement section 7, read-out: KD (Biacore T200 fit).
[2] abbreviates: SPR, 20 °C, steady-state 1:1 fit, footnote b values fitted because RMAX was not reached experimentally, read-out: K D, SPR.

Where two headings read alike, the source gives them in different places.

T1 sequence (P40337 54-213): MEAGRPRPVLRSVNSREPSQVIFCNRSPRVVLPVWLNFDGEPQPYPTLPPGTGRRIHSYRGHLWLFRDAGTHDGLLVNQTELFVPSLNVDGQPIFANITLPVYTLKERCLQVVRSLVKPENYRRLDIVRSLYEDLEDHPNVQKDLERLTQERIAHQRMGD
T1 sequence (Q15370 1-104 partner limits assumed): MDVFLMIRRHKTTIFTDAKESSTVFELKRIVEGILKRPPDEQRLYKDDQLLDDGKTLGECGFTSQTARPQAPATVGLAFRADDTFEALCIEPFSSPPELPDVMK
T1 sequence (Q15369 17-112 partner limits assumed): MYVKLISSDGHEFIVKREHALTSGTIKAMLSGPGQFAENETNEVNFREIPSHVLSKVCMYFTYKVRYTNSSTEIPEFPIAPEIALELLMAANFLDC

With `O=C(NCc1ccc(Br)cc1)C1CC(O)CN1C(=O)CC(F)(F)F` (centres unmarked) [Compound 19], the Kd is, setting by setting: under setting [1], 145 µM; under setting [2], 145 ± 29 µM.
Taken in the same sequence, the figures for `CC(C)(C)CC(=O)N1C[C@H](O)C[C@H]1C(=O)NCc1ccc(Br)c(C(F)(F)F)c1` [Compound 3] were 407 µM and 407 ± 5 µM.
As to `CC(=O)N1C[C@H](O)C[C@H]1C(=O)NCc1ccc(Br)cc1C(F)(F)F` [Compound 10], the Kd under setting [2] turned out to be 1350 ± 94 µM.
For `CC(=O)NC(C(=O)N1CC(O)CC1C(=O)NCc1ccc(Br)cc1C(F)(F)F)C(C)(C)C` (centres unmarked) [Compound 12], for the setting “SPR”, the “binding kinetics / dissociation rates by SPR” value is “too high to be determined accurately”. The Kd was determined as 1.14 µM under setting [1] and 1.14 ± 0.12 µM under setting [2].

The values above are taken from paper PMC6369734, “Spy vs. spy: selecting the best reporter for ^19F NMR competition experiments” (Chemical Communications (Cambridge, England), 2019).
